These results are taken from patent US10538535B2, “Antitumoral compounds” (priority 2017, dated 2020).

Data set [1] can be described thus: MTMD (Maximum Tolerated Multiple Dose) determination, iv weekly x3. Format: in vivo. The conditions noted are these: mice; iv/Q7dx3. An excerpt: (§1) Female CD-1 or Athymic Nude-Fox1 nu/nu mice (Envigo) were utilized for all experiments. […] Animals were acclimated for five days prior to being individually tattoo-identified. Animal protocols were reviewed and approved according to the regional Institutional Animal Care and Use Committees.
(§2) Mice were randomly allocated into experimental groups and intravenously administered, once for the MTD (Maximum Tolerated Dose) determination or one administration a week during three consecutive weeks, for the MTMD (Maximum Tolerated Multiple Dose) determination study. The animals were administered with white formulation or with compound dissolved in the experimental formulation at different concentrations. The volume administered was always 10 mL/kg. Once administered, animals were monitored for clinical signs of systemic toxicity, changes in body weight and mortality up to 14 days after the administration.

Another data set concerns PSN1 cells. The experiment in a line: cells. As to conditions: for CC50: read-out: LC50. The procedure, abridged:
(§3)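 Cells seeded at 5000/well, attached 18 h, then treated 72 h with ten 2/5 serial dilutions (10 to 0.003 μg/mL, 1% final DMSO) in triplicate. Growth measured by SRB staining after glutaraldehyde fixation, with time-zero plate; values from NCI algorithm and four-parameter logistic fit.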

In the next data set the test system is A549 cells. The experiment in a line: cells. The conditions noted are these: for CC50: read-out: LC50. The procedure, abridged:
as §3

For a further data set, the system named is MDA-MB-231 cells. The experiment in a line: cells. The conditions noted are these: for CC50: read-out: LC50. In outline:
as §3

Data set [2] can be described thus: MTD (Maximum Tolerated Dose) determination, single iv administration. The conditions noted are these: mice; iv/SD. Format: in vivo.
Text: as §1, §2

The next data set has as its system HT29 cells. In words: cells. As to conditions: Homo sapiens, HT-29, 72 h; for CC50: read-out: LC50. The procedure, abridged: as §3
A further data set concerns H526 tumors. In words: In vivo xenograft, human lung (SCLC) H526. The conditions noted are these: iv Days 0, 7, 14, 12-R 0.05 mg/kg, Compound D 0.5 mg/kg.
The next data set has as its system H82 tumors. The experiment in a line: In vivo xenograft, human lung (SCLC) H82. The conditions noted are these: iv Days 0, 7, 14, 12-R 0.05 mg/kg, Compound D 0.5 mg/kg.
The next data set relates to PC-3 tumors. As to conditions: 12-R 0.05 mg/kg. From the text:
In this model, instead of male, female animals were used because PC-3 growth is not hormone dependant.

Setting [3] is: MDA-MB-231, 72 hours treatment, SRB.

Like-named read-outs stand apart in the source and are kept apart here.

For orientation: MTD means the largest dose that counted as tolerated. A low value points to a narrow tolerated range. As a reminder, the GI50 is the concentration at which growth is held to half of that of the control. A low value points to greater sensitivity of the cells.

Experimental for DU-145 tumors: Female athymic nu/nu mice (Harlan Laboratories Models, S. L. Barcelona, Spain or Envigo, Spain) were utilized for all experiments. Animal were housed in individually ventilated cages Sealsafe® Plus, Techniplast S.P.A.), up to ten per cage on a 12-hour light-dark cycle at 21-23° C. and 40-60% humidity. Mice were allowed free access to irradiated standard rodent diet (Tecklad 2914C) and sterilized water. Animals were acclimated for at least 5 days prior to tumor implantation with a tumor cell suspension.
Culture cells were passaged every 3 to 5 days upon reaching confluence Each male athymic mice was subcutaneously implanted (on the right flank using a 26 G needle and a 1 cc syringe) at 4-6 weeks of age with 5×10^6 DU-145 cells suspended in 0.05 mL of a solution consisting of 50% Matrigel® Matrix (Corning Incorporated Life Sciences) and 50% medium without serum or antibiotics.
Treatment tolerability was assessed by monitoring body weight evolution, clinical signs of systemic toxicity, as well as evidences of local damage in the injection site.
In xenograft studies with other cell lines: • Tumor volume was calculated using the equation (a·b^2)/2, where a: length (longest diameter) and b: width (shortest diameter) were measured in mm by using digital caliper (Fowler Sylvac, S235PAT).
Treatments producing >20% lethality and/or 20% net body weight loss were considered toxic.
Tables and figures summarize the data obtained from complete experimental groups, i.e. those groups keeping the initial number of animals, n=8-10.

Compound `COc1ccc2[nH]c3c(c2c1)C[C@H](CO)N[C@]31CS[C@@H]2c3c(OC(C)=O)c(C)c4c(c3[C@H](COC1=O)N1[C@@H]2[C@H]2c3c(cc(C)c(OC)c3O)C[C@@H]([C@@H]1O)N2C)OCO4` [Compound 19-R] yielded an MTMD in data set [1] of 0.15 mg/kg. Besides, the TGI with PSN1 cells (PSN1, 72 hours treatment, SRB) came to 1.35E−09 Molar; in the data set with A549 cells (A549, 72 hours treatment, SRB) it was 3.56E−09 Molar; in the data set with MDA-MB-231 cells (setting [3]) it was 1.35E−09 Molar. Also, the CC50 in the data set with A549 cells (A549, 72 hours treatment, SRB) is above 123 nM; with MDA-MB-231 cells (setting [3]) it was above 123 nM. Besides, in [2], the MTD worked out at 0.15 mg/kg.

On to `COc1c(C)cc2c(c1O)[C@@H]1[C@@H]3[C@@H]4SC[C@]5(N[C@H](CO)Cc6c5oc5ccccc65)C(=O)OC[C@@H](c5c6c(c(C)c(OC(C)=O)c54)OCO6)N3[C@@H](O)[C@H](C2)N1C` [Compound 39-S], for which the “Median Tumor Volume” value is given as 179.9 mm^3 in the data set with DU-145 tumors (Day 0, 39-S 1.00 mg/Kg iv Days 0, 7 and 14); 199.9 mm^3 in the data set on DU-145 tumors (Day 2, 39-S 1.00 mg/Kg iv Days 0, 7 and 14); 222.2 mm^3 with DU-145 tumors (Day 4, 39-S 1.00 mg/Kg iv Days 0, 7 and 14); 340.5 mm^3 in the data set with DU-145 tumors (Day 7, 39-S 1.00 mg/Kg iv Days 0, 7 and 14); 354.1 mm^3 with DU-145 tumors (Day 9, 39-S 1.00 mg/Kg iv Days 0, 7 and 14); 349.7 mm^3 in the data set with DU-145 tumors (Day 11, 39-S 1.00 mg/Kg iv Days 0, 7 and 14). Moreover, the “Median Tumor Volume” value was 429.1 mm^3 in the data set with DU-145 tumors (Day 14, 39-S 1.00 mg/Kg iv Days 0, 7 and 14); 454.8 mm^3 with DU-145 tumors (Day 16, 39-S 1.00 mg/Kg iv Days 0, 7 and 14); 449.7 mm^3 in the data set on DU-145 tumors (Day 18, 39-S 1.00 mg/Kg iv Days 0, 7 and 14); 517.5 mm^3 in the data set on DU-145 tumors (Day 21, 39-S 1.00 mg/Kg iv Days 0, 7 and 14); 568.5 mm^3 with DU-145 tumors (Day 23, 39-S 1.00 mg/Kg iv Days 0, 7 and 14); 629.4 mm^3 in the data set with DU-145 tumors (Day 25, 39-S 1.00 mg/Kg iv Days 0, 7 and 14). Further, the “Median Tumor Volume” value in the data set on DU-145 tumors (Day 28, 39-S 1.00 mg/Kg iv Days 0, 7 and 14) worked out at 775.7 mm^3. Also, the CC50 in the data set on HT29 cells was above 127 nM.

In turn, `COc1ccc2oc3c(c2c1)CCN[C@]31CS[C@@H]2c3c(OC(C)=O)c(C)c4c(c3[C@H](COC1=O)N1[C@@H]2[C@H]2c3c(cc(C)c(OC)c3O)C[C@@H]([C@@H]1O)N2C)OCO4` [Compound 35] yielded an MTMD in [1] of 0.25 mg/kg. For the same compound, the GI50 in the data set with PSN1 cells (Homo sapiens, PSN1, 72 h) was 6.24 nM; in the data set with A549 cells (Homo sapiens, A549, 72 h) it was 8.14 nM; in the data set on MDA-MB-231 cells (Homo sapiens, MDA-MB-231, 72 h) it was 4.58 nM; in the data set on HT29 cells, 7.89 nM. The CC50 in the data set on PSN1 cells (Homo sapiens, PSN1, 72 h) is 14 nM; in the data set on A549 cells (Homo sapiens, A549, 72 h) it was above 127 nM; in the data set on MDA-MB-231 cells (Homo sapiens, MDA-MB-231, 72 h) it was 16.5 nM; in the data set on HT29 cells, above 127 nM. The IC (TGI) with PSN1 cells (Homo sapiens, PSN1, 72 h, read-out: TGI) was determined as 9.03 nM; in the data set with A549 cells (Homo sapiens, A549, 72 h, read-out: TGI), 8.78 nM; with MDA-MB-231 cells (Homo sapiens, MDA-MB-231, 72 h, read-out: TGI) it was 8.27 nM; with HT29 cells (read-out: TGI), 8.65 nM.

On to `COc1c(C)cc2c(c1O)[C@@H]1[C@@H]3[C@@H]4SC[C@]5(N[C@@H](CN)Cc6c5[nH]c5ccccc65)C(=O)OC[C@@H](c5c6c(c(C)c(OC(C)=O)c54)OCO6)N3[C@@H](O)[C@H](C2)N1C` [Compound 12-R], for which the “Median Tumor Volume” value in the data set on H526 tumors (Table 32, Day 0.0) is given as 214.20 mm^3; in the data set on H526 tumors (Table 32, Day 2.0), 404.50 mm^3; with H526 tumors (Table 32, Day 4.0), 680.50 mm^3; in the data set on H526 tumors (Table 32, Day 7.0), 995.20 mm^3; in the data set on H526 tumors (Table 32, Day 9.0), 1290.50 mm^3; in the data set with H526 tumors (Table 32, Day 11.0) it was 1568.00 mm^3. Besides, the “Median Tumor Volume” value in the data set on H526 tumors (Table 32, Day 14.0) is 2025.00 mm^3; with H82 tumors (Table 33, Day 0.0), 170.50 mm^3; in the data set with H82 tumors (Table 33, Day 2.0), 381.40 mm^3; with H82 tumors (Table 33, Day 5.0), 793.20 mm^3; in the data set on H82 tumors (Table 33, Day 7.0) it was 1187.20 mm^3; with H82 tumors (Table 33, Day 9.0), 1699.30 mm^3. Moreover, the “Median Tumor Volume” value in the data set on H82 tumors (Table 33, Day 12.0) is recorded as 2125.60 mm^3; with PC-3 tumors (Day 0, iv Days 0, 7 and 14, 12-S […]), 129.0 mm^3; in the data set with PC-3 tumors (Day 2, iv Days 0, 7 and 14, 12-S […]), 136.2 mm^3; in the data set on PC-3 tumors (Day 4, iv Days 0, 7 and 14, 12-S […]) it was 144.2 mm^3; in the data set with PC-3 tumors (Day 7, iv Days 0, 7 and 14, 12-S […]), 172.2 mm^3; in the data set on PC-3 tumors (Day 11, iv Days 0, 7 and 14, 12-S […]), 183.6 mm^3. In addition, the “Median Tumor Volume” value amounted to 205.2 mm^3 in the data set with PC-3 tumors (Day 14, iv Days 0, 7 and 14, 12-S […]); 256.0 mm^3 with PC-3 tumors (Day 16, iv Days 0, 7 and 14, 12-S […]); 325.7 mm^3 in the data set with PC-3 tumors (Day 18, iv Days 0, 7 and 14, 12-S […]); 322.2 mm^3 in the data set on PC-3 tumors (Day 21, iv Days 0, 7 and 14, 12-S […]); 407.8 mm^3 with PC-3 tumors (Day 23, iv Days 0, 7 and 14, 12-S […]); 419.9 mm^3 in the data set on PC-3 tumors (Day 25, iv Days 0, 7 and 14, 12-S […]). Also, the “Median Tumor Volume” value in the data set on PC-3 tumors (Day 29, iv Days 0, 7 and 14, 12-S […]) worked out at 459.1 mm^3; in the data set on PC-3 tumors (Day 32, iv Days 0, 7 and 14, 12-S […]) it was 512.1 mm^3; in the data set with PC-3 tumors (Day 35, iv Days 0, 7 and 14, 12-S […]), 579.2 mm^3; in the data set with PC-3 tumors (Day 37, iv Days 0, 7 and 14, 12-S […]), 613.8 mm^3; in the data set with PC-3 tumors (Day 39, iv Days 0, 7 and 14, 12-S […]), 764.1 mm^3; in the data set on PC-3 tumors (Day 42, iv Days 0, 7 and 14, 12-S […]) it was 785.0 mm^3. Moreover, the “Median Tumor Volume” value is 845.5 mm^3 in the data set on PC-3 tumors (Day 44, iv Days 0, 7 and 14, 12-S […]); 748.0 mm^3 in the data set on PC-3 tumors (Day 46, iv Days 0, 7 and 14, 12-S […]); 808.7 mm^3 with PC-3 tumors (Day 49, iv Days 0, 7 and 14, 12-S […]); 855.8 mm^3 with PC-3 tumors (Day 51, iv Days 0, 7 and 14, 12-S […]); 1125.2 mm^3 in the data set on PC-3 tumors (Day 56, iv Days 0, 7 and 14, 12-S […]). Further, the CC50 in the data set on PSN1 cells (Homo sapiens, PSN1, 72 h) was above 128 nM.
